Publication PMC12440375 (Biochemistry, 2025)
Where two headings read alike, the source gives them in different places.

How the values were obtained:
[1] = biological target: T1, EmrE (Escherichia coli, UniProt P23895); experiment: fluorescence polarization; format: binding
T1 sequence (P23895 1-110): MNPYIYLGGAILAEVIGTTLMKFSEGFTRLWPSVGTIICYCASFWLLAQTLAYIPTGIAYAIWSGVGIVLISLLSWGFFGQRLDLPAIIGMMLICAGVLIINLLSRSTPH

[2] = biological target: T2, EmrE (Escherichia coli, UniProt P23895, K22R); experiment: fluorescence polarization; format: binding
T2 sequence (P23895 1-110 K22R): T1 sequence (P23895 1-110)

[3] = biological target: T3, EmrE (Escherichia coli, UniProt P23895, K22A); experiment: fluorescence polarization; format: binding
T3 sequence (P23895 1-110 K22A): T1 sequence (P23895 1-110)

[4] = biological target: T3, EmrE; experiment: TROSY-HSQC NMR; format: binding
[5] = biological target: the molecule itself; experiment: native MS
[6] = biological target: the molecule itself; experiment: native MS; remark: listed apart in the source

## CC1=CC(C)=[N+]2C1=C(c1ccc3c(c1)OCCOCCOCCOCCOCCO3)c1c(C)cc(C)n1[B-]2(F)F [benzo[18]crown-6 BODIPY, 10-(2,3,5,6,8,9,11,12,14,15-decahydrobenzo[b][1,4,7,10,13,16]Hexaoxacyclooctadecin-18-yl)-5,5-difluoro-1,3,7,9-tetramethyl-5H-4l4,5l4-dipyrrolo[1,2-c:2′,1′-f][1,3,2]diazaborinine]
[1]
  Kd: 97.4 nM
[2]
  Kd: 226 nM
[3]
  Kd: 154 nM

## c1ccc([P+](c2ccccc2)(c2ccccc2)c2ccccc2)cc1 [tetraphenylphosphonium bromide]
[4]
  TROSY-HSQC NMR: a portion of the drug-free K22A-EmrE was saturated with the substrate tetraphenylphosphonium bromide (TPP+)

B1: EmrE (WT-EmrE), multidrug efflux pump from Escherichia coli (natural protein)
chain: T1 sequence (P23895 1-110)
[5]
  stoichiometry N: 2

B2: Saposin A (natural protein)
chain: SLPCDICKDVVTAAGDMLKDNATEEEILVYLEKTCDWLPKPNMSASCKEIVDSYLPVILDIIKGEMSRPGEVCSALNLCESLQ
[5]
  stoichiometry N: 2
[6]
  stoichiometry N: 4
